Source: patent US9765075B2, “Substituted bridged urea analogs as sirtuin modulators” (GLAXOSMITHKLINE LLC, priority 2013, dated 2017)
Like-named read-outs stand apart in the source and are kept apart here.

Molecular target: T1, SIRT1 (Homo sapiens, UniProt Q96EB6)
T1 sequence (Q96EB6 1-747): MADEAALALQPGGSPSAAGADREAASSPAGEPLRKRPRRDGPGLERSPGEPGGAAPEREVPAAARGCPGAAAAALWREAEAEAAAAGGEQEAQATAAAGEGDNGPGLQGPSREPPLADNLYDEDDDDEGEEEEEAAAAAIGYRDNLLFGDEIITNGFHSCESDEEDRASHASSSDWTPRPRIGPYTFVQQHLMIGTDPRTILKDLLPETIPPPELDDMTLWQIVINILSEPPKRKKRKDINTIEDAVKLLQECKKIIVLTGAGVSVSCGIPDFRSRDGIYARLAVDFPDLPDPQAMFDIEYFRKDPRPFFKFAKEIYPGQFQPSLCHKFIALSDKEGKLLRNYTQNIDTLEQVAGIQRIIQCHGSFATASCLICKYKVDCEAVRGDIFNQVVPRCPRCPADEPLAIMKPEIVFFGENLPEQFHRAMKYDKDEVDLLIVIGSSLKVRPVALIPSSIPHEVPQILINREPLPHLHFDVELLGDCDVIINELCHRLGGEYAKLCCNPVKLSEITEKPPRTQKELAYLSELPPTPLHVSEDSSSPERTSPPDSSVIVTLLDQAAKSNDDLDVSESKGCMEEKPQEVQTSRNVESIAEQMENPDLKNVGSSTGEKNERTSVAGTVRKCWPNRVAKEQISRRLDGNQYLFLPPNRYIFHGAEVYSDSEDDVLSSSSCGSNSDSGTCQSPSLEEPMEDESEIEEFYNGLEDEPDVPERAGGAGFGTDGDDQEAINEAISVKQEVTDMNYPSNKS
Experiment: Trp mass spectrometry assay (SIRT1 activation)
Format: biochemical
Settings: for Emax: percent maximum fold activation of SIRT1, read-out: Tryp % Fold Act
In short: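 Activation is expressed as EC1.5, the concentration raising activity 50% above DMSO control, and as maximum percent of control. Mass-spec readout was OAADPR or deacetylated Trp peptide after a formic-acid-quenched 25-min, 25 °C reaction: 10 nM bacterially expressed His-SIRT1, 0.5 μM acetyl-p53-derived peptide, 120 μM NAD+, pH 7.5 HEPES with […].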

[1] = Trp mass spectrometry assay, EC1.5 = concentration giving 150% activation of SIRT1
[2] = concentration of test compound that results in 150% activation of SIRT1, Trp peptide substrate
[3] = Trp mass spectrometry assay, EC1.5 = concentration of test compound that results in 150% activation of SIRT1

| Structure (SMILES) | Tryp AVG EC1.5 (μM) [1] | Emax (Trp mass spectrometry assay) [%] | Tryp AVG EC1.5 (μM) [2] | Emax (Trp peptide substrate) [%] | Tryp AVG EC1.5 (μM) [3] |
| --- | --- | --- | --- | --- | --- |
| O=C(Nc1ccccn1)N1c2nc(-c3cccc(C(F)(F)F)c3)ccc2N2CCC[C@H]1C2 [Example 820] | A (EC1.5<1 μM) | ≥ 150 | – | – | – |
| NCc1ncc(-c2cccc(NC(=O)N3c4nc(-c5cccc(C(F)(F)F)c5)ccc4N4CC[C@H]3C4)c2)o1 [Example 725] | A (EC1.5<1 μM) | ≥ 150 | – | – | – |
| O=C(Nc1ccncn1)N1c2nc(-c3cccc(C(F)(F)F)n3)ccc2N2CC[C@H]1C2 [Example 337] | – | – | B (EC1.5 1-25 μM) | ≥ 150 | – |
| CC(=O)NCc1ccc(NC(=O)N2c3nc(-c4cccc(C(F)(F)F)c4)ccc3N3CCC[C@H]2C3)cc1 [Example 790] | A (EC1.5<1 μM) | ≥ 150 | – | – | – |
| O=C(Nc1cccnc1)N1c2nc(-c3cccnc3)ccc2N2CCC[C@H]1C2 [Example 455] | – | – | B (EC1.5 1-25 μM) | ≥ 150 | – |
| O=C(Nc1cc(Br)cc(-c2cnco2)c1)N1c2nc(-c3cccc(C(F)(F)F)c3)ccc2N2CC[C@H]1C2 [Example 562] | – | – | A (EC1.5<1 μM) | ≥ 150 | – |
| COc1cc(NC(=O)N2c3nc(-c4cncc(C)c4)ccc3N3CCC[C@H]2C3)ncn1 [EX-527, reference compound] | – | – | A (EC1.5<1 μM) | ≥ 150 | – |
| O=C1CN2C[C@H]1N(C(=O)Nc1cccc(-c3cnco3)c1)c1nc(-c3cccc(C(F)(F)F)c3)ccc12 [Example 692] | A (EC1.5<1 μM) | ≥ 150 | – | – | – |
| Cc1nc(NC(=O)N2c3nc(-c4cncc(Cl)c4)ccc3N3CCC[C@H]2C3)sc1C [Example 402] | – | – | A (EC1.5<1 μM) | ≥ 150 | – |
| O=C(Nc1ccc(F)cn1)N1c2nc(-c3ccnc(N4CCC(C(F)(F)F)C4)c3)ccc2N2CC[C@H]1C2 (some centres unmarked) [Example 391] | – | – | A (EC1.5<1 μM) | ≥ 150 | – |
| O=C(Nc1cncc(F)c1)N1c2nc(-c3cccc(C(F)(F)F)c3)ccc2N2C[C@@H](O)[C@H]1C2 [Example 630] | A (EC1.5<1 μM) | ≥ 150 | – | – | – |
| Cc1nc(NC(=O)N2c3nc(-c4cccc(C(F)(F)F)c4)ccc3N3C[C@@H](O)[C@H]2C3)sc1C [Example 699] | B (EC1.5 1-25 μM) | ≥ 150 | – | – | – |
| O=C(Nc1ccccn1)N1c2nc(-c3cccc(Cl)c3)ccc2N2CC[C@H]1C2 [Example 19] | – | ≥ 150 | – | – | – |
| CS(=O)(=O)c1cncc(-c2ccc3c(n2)N(C(=O)Nc2cncc(F)c2)[C@H]2CCCN3C2)c1 [Example 377] | – | – | A (EC1.5<1 μM) | ≥ 150 | – |
| O=C(Nc1ccccn1)N1c2nc(-c3cccnc3)ccc2N2CCC[C@H]1C2 [Example 441] | – | – | B (EC1.5 1-25 μM) | ≥ 150 | – |
| Cc1cc(-c2ccc3c(n2)N(C(=O)Nc2cncc(C)n2)[C@H]2CCN3C2)ccn1 [Example 503] | – | – | A (EC1.5<1 μM) | ≥ 150 | – |
| COc1cc(NC(=O)N2c3nc(-c4cccc(N5CCC(C(F)(F)F)C5)c4)ccc3N3CC[C@H]2C3)ncn1 (some centres unmarked) [Example 320] | – | – | B (EC1.5 1-25 μM) | ≥ 150 | – |
| C#CCOc1cc(-c2ccc3c(n2)N(C(=O)Nc2cccc(C4(C(F)(F)F)N=N4)c2)[C@H]2CCN3C2)cc(C(F)(F)F)c1 [Example 800] | C (EC1.5>25 μM) | < 150 | – | – | – |
| COc1cc(NC(=O)N2c3nc(-c4cncc(Cl)c4)ccc3N3CCC2CC3)nc(OC)n1 [Example 553] | – | – | B (EC1.5 1-25 μM) | ≥ 150 | – |
| O=C(Nc1cccnc1)N1c2nc(-c3cccc(N4CCCC4)c3)ccc2N2CC[C@H]1C2 [Example 192] | – | ≥ 150 | – | – | B (EC1.5 1-25 μM) |
| Cc1nn(C)cc1-c1ccc2c(n1)N(C(=O)Nc1cccnc1)[C@H]1CCN2C1 [Example 488] | – | – | B (EC1.5 1-25 μM) | ≥ 150 | – |
| O=C(Nc1cnccn1)N1c2nc(-c3cccc(N4CCC(F)(F)C4)c3)ccc2N2CC[C@H]1C2 [Example 239] | – | – | A (EC1.5<1 μM) | ≥ 150 | – |
| O=C(Nc1cncc(Br)c1)N1c2nc(-c3cccc(C(F)(F)F)c3)ccc2N2CC[C@H]1C2 [Example 542] | – | – | A (EC1.5<1 μM) | ≥ 150 | – |
| Cc1ccc(-c2ccc3c(n2)N(C(=O)Nc2ccccn2)[C@H]2CCCN3C2)cn1 [Example 465] | – | – | B (EC1.5 1-25 μM) | ≥ 150 | – |

| Structure (SMILES) | Tryp AVG EC1.5 (μM) [1] | Emax (Trp mass spectrometry assay) [%] | Tryp AVG EC1.5 (μM) [2] | Emax (Trp peptide substrate) [%] | Tryp AVG EC1.5 (μM) [3] |
| --- | --- | --- | --- | --- | --- |
| CS(=O)(=O)c1cccc(-c2ccc3c(n2)N(C(=O)Nc2cccc(-c4cnco4)n2)[C@H]2CCN3C2)c1 [Example 715] | B (EC1.5 1-25 μM) | ≥ 150 | – | – | – |
| O=C(Nc1ccncc1F)N1c2nc(C3CCCC(C(F)(F)F)C3)ccc2N2CC[C@H]1C2 (some centres unmarked) [Example 148] | – | ≥ 150 | – | – | B (EC1.5 1-25 μM) |
| O=C(Nc1ccccn1)N1c2nc(N3CCCC(C(F)(F)F)C3)ccc2N2CCC[C@@H]1C2 (some centres unmarked) [Example 300] | – | – | C (EC1.5>25 μM) | < 150 | – |
| Cc1ccc(-c2ccc3c(n2)N(C(=O)Nc2cncc(F)c2)[C@H]2CCCN3C2)cn1 [Example 477] | – | – | B (EC1.5 1-25 μM) | ≥ 150 | – |
| Cc1nc(NC(=O)N2c3nc(-c4cccc(Cl)c4)ccc3N3CCC2CC3)sc1C [Example 569] | – | – | B (EC1.5 1-25 μM) | ≥ 150 | – |
| Cc1c(-c2ccc3c(n2)N(C(=O)Nc2cccnc2)[C@H]2CCN3C2)cnn1C [Example 489] | – | – | B (EC1.5 1-25 μM) | ≥ 150 | – |
| COc1ncc(-c2ccc3c(n2)N(C(=O)Nc2cnccn2)[C@H]2CCN3C2)c(OC)n1 [Example 398] | – | – | B (EC1.5 1-25 μM) | ≥ 150 | – |
| CC(=O)N1CCCN(c2ccc3c(n2)N(C(=O)Nc2ccncn2)[C@H]2CCCN3C2)CC1 [Example 434] | – | – | C (EC1.5>25 μM) | < 150 | – |
| Cc1nc(NC(=O)N2c3nc(-c4cncc(C(F)(F)F)c4)ccc3N3C[C@@H](O)[C@H]2C3)sc1C [Example 697] | B (EC1.5 1-25 μM) | ≥ 150 | – | – | – |
| O=C(Nc1cccc(-c2cnco2)c1)N1c2nc(-c3cccc(Cl)c3)ccc2N2CC[C@H]1C2 [Example 365] | – | – | A (EC1.5<1 μM) | ≥ 150 | – |
| Cc1cc(-c2ccc3c(n2)N(C(=O)Nc2cnc(OC[C@@H](O)CO)cn2)[C@H]2CCN3C2)ccn1 [Example 561] | – | – | B (EC1.5 1-25 μM) | ≥ 150 | – |
| Cc1nc(NC(=O)N2c3nc(-c4cccc(OC(F)(F)F)c4)ccc3N3CC[C@H]2C3)sc1C [Example 165] | – | ≥ 150 | – | – | A (EC1.5<1 μM) |
| O=C(Nc1ccc(F)cn1)N1c2nc(-c3ccnc(C(F)(F)F)c3)ccc2N2CC[C@H]1C2 [Example 128] | – | ≥ 150 | – | – | A (EC1.5<1 μM) |
| Cn1nccc1-c1ccc2c(n1)N(C(=O)Nc1cccnc1)[C@H]1CCN2C1 [Example 524] | – | – | B (EC1.5 1-25 μM) | ≥ 150 | – |
| COC(=O)N1CCCN(c2ccc3c(n2)N(C(=O)Nc2ccncn2)[C@H]2CCCN3C2)CC1 [Example 446] | – | – | B (EC1.5 1-25 μM) | ≥ 150 | – |
| O=C(Nc1ccc(F)cn1)N1c2nc(-c3cccc(Cl)c3)ccc2N2CCC[C@H]1C2 [Example 141] | – | ≥ 150 | – | – | A (EC1.5<1 μM) |
| CC(C)(C)c1csc(NC(=O)N2c3nc(-c4cccc(C(F)(F)F)c4)ccc3N3CC[C@H]2C3)n1 [Example 72] | – | ≥ 150 | – | – | – |
| NCCCCCC(=O)NCc1cn(-c2cccc(NC(=O)N3c4nc(-c5cccc(C(F)(F)F)c5)ccc4N4CC[C@H]3C4)c2)nn1 [Example 639] | A (EC1.5<1 μM) | ≥ 150 | – | – | – |
| O=C(Nc1cnccn1)N1c2nc(-c3cccc(C(F)(F)F)c3)ccc2N2CCC1CC2 [Example 472] | – | – | A (EC1.5<1 μM) | ≥ 150 | – |
| Cc1cncc(-c2ccc3c(n2)N(C(=O)Nc2ccncn2)[C@H]2CCCN3C2)c1 [Example 517] | – | – | A (EC1.5<1 μM) | ≥ 150 | – |
| CC(C)(C)c1nnc(NC(=O)N2c3nc(-c4cccc(C(F)(F)F)c4)ccc3N3CC[C@H]2C3)s1 [Example 649] | B (EC1.5 1-25 μM) | ≥ 150 | – | – | – |
| CCCCC(=O)c1cccc(NC(=O)N2c3nc(-c4cccc(C(F)(F)F)c4)ccc3N3CC[C@H]2C3)c1 [Example 737] | A (EC1.5<1 μM) | ≥ 150 | – | – | – |
| O=C(Nc1ccccn1)N1c2nc(-c3cccc(Cl)c3)ccc2N2CCC1CC2 [Example 533] | – | – | B (EC1.5 1-25 μM) | ≥ 150 | – |
